Structures are written as SMILES. Values after ≈ are worked out from the molar mass of the structure shown.

By IC50 is commonly meant the concentration at which inhibition is half-maximal. In general, GI50 refers to the concentration at which growth is held to half of that of the control.

One experiment relates to HCT-116. Nature of the experiment: Cytotoxicity against human HCT116 cells. Type of experiment: functional, cell-based.
The subject of experiment [1] is PC-3. Put plainly: Cytotoxicity against human PC3 cells. It counts as functional, cell-based.
The next experiment deals with HT-29. Nature of the experiment: cells. To be noted: Homo sapiens, HT-29, 48 h.
Experiment [2] has as its system PC-3. Nature of the experiment: cells. To be noted: Homo sapiens, PC-3, 48 h.
Experiment [3] concerns MDA-MB-231. Put plainly: Cytotoxicity against human MDA-MB-231 cells. Type of experiment: functional.
For another experiment, the system named is SiHa. Put plainly: Cytotoxicity against human SiHa cells. It counts as functional.
A further experiment deals with PANC-1. Put plainly: Cytotoxicity against human PANC1 cells. Type of experiment: functional.
A further experiment deals with Caco-2. Nature of the experiment: Cytotoxicity against human Caco2 cells. Type of experiment: functional, cell-based.
Experiment [4] concerns HeLa. Nature of the experiment: Cytotoxicity against human HeLa cells. Type of experiment: functional, cell-based.
Experiment [5] relates to MCF7. Put plainly: Cytotoxicity against human MCF7 cells. Type of experiment: functional, cell-based.
In another experiment the test system is SK-BR-3. Put plainly: Cytotoxicity against human SKBR3 cells. Type of experiment: functional, cell-based.
Another experiment has as its system HepG2. Nature of the experiment: Growth inhibition of human HepG2 cells. Type of experiment: functional.
Experiment [6] deals with HeLa. Nature of the experiment: Growth inhibition of human HeLa cells. Type of experiment: functional.
Experiment [7] concerns MCF7. Put plainly: Growth inhibition of human MCF7 cells. It counts as functional.
The test system of experiment [8] is MDA-MB-231. Nature of the experiment: Growth inhibition of human MDA-MB-231 cells by microtiter plate assay. Type of experiment: functional.
The test system of the next experiment is DU-145. Nature of the experiment: Growth inhibition of human DU145 cells by microtiter plate assay. It counts as functional.
The subject of experiment [9] is MCF7. Put plainly: Growth inhibition of human MCF7 cells by microtiter plate assay. Type of experiment: functional.

Description for HT-29: Antiproliferative activity against human HT-29 cells after 48 hrs by MTT assay

On to `COc1cc(/C=C/C(=O)c2ccc(C)cc2)ccc1Oc1nnnn1-c1ccccc1`, for which the IC50 in the experiment on HCT-116 and in the experiment with PC-3 [1] was 2.5 to 7 µg/mL (≈ 6.06 to 17 µM) each time.

Consider `COc1ccc(-c2nn(-c3ccccc3)cc2-c2nnn(CC(=O)O)n2)cc1`, for which the IC50 in the experiment on HT-29 and in the experiment with PC-3 [2] was 7.23 to 48.3 µM in each case.

In the case of `O=C(O)c1cn(C2CC2)c2cc(N3CCN(C(=O)CCSc4nnnn4-c4ccc(Br)cc4)CC3)c(F)cc2c1=O`, the GI50 in the experiment on MDA-MB-231 [3], in the experiment with SiHa and in the experiment with PANC-1 was 0.066 to 1.3 µM in each case.

For the molecule `NC1=C(c2nnn[nH]2)C(c2ccccc2Cl)c2c(ccc3ccccc23)O1` (stereo unspecified), the IC50 in the experiment on Caco-2, in the experiment on HeLa [4], in the experiment on MCF7 [5] and with SK-BR-3 was 15 to 87 µM throughout.

With `CN(C)C(=O)NC(c1ccccc1)n1cnnn1` (stereo unspecified), the GI50 with HepG2, in the experiment with HeLa [6] and in the experiment with MCF7 [7] was 8.2 to 41 µM in each case.

Turning to `CCn1cc(C(=O)O)c(=O)c2cnc(N3CCN(C(=O)CCSc4nnnn4-c4ccc(C(F)(F)F)cc4)CC3)nc21`, the GI50 in the experiment with MDA-MB-231 [3], in the experiment with SiHa and in the experiment with PANC-1 was 0.066 to 1.3 µM each time.

For the molecule `CCc1cc2c(cc1O)CC[C@@H]1[C@@H]2CC[C@]2(C)[C@@H](Cc3nnn(C)n3)CC[C@@H]12`, the GI50 in the experiment on MDA-MB-231 [8], in the experiment with DU-145 and in the experiment with MCF7 [9] was 0.8 to 47 µM each time.

In the case of `COc1cc(/C=C/C(=O)c2ccc(Cl)cc2)ccc1Oc1nnnn1-c1ccccc1`, the IC50 in the experiment with HCT-116 and with PC-3 [1] was 2.5 to 7 µg/mL (≈ 5.78 to 16.2 µM) throughout.

Consider `COc1cc(/C=C/C(=O)c2ccc(F)cc2)ccc1Oc1nnnn1-c1ccccc1`, for which the IC50 in the experiment with HCT-116 and with PC-3 [1] was 2.5 to 7 µg/mL (≈ 6 to 16.8 µM) throughout.

Turning to `NC1=C(c2nnn[nH]2)C(c2ccccc2F)c2c(ccc3ccccc23)O1` (stereo unspecified), the IC50 with Caco-2, in the experiment with HeLa [4], in the experiment on MCF7 [5] and with SK-BR-3 was 15 to 87 µM throughout.

`NC(=S)NNC(c1ccc(O)cc1)n1cnnn1` (stereo unspecified): the GI50 in the experiment with HepG2, with HeLa [6] and in the experiment on MCF7 [7] was 5.2 to 29.8 µM throughout.

On to `CCc1ccc(C2C(c3nnn[nH]3)=C(N)Oc3ccc4ccccc4c32)cc1` (stereo unspecified), for which the IC50 with Caco-2, in the experiment on HeLa [4], with MCF7 [5] and with SK-BR-3 was 15 to 87 µM in each case.

In the case of `O=C(O)Cn1nnc(-c2cn(-c3ccccc3)nc2-c2ccccc2Cl)n1`, the IC50 with HT-29 and with PC-3 [2] was 6.43 to 18.2 µM each time.

Consider `CCc1cc2c(cc1OS(N)(=O)=O)CC[C@@H]1[C@@H]2CC[C@]2(C)[C@@H](Cc3nnnn3C)CC[C@@H]12`, for which the GI50 in the experiment with MDA-MB-231 [8], in the experiment with DU-145 and in the experiment with MCF7 [9] was 0.34 to 0.55 µM each time.

Turning to `COc1ccc(OC)c(C2C(c3nnn[nH]3)=C(N)Oc3ccc4ccccc4c32)c1` (stereo unspecified), the IC50 with Caco-2, in the experiment on HeLa [4], in the experiment on MCF7 [5] and in the experiment on SK-BR-3 was 15 to 87 µM in each case.

For `CN(C)C(=O)NC(c1ccc(O)cc1)n1cnnn1` (stereo unspecified), the concentration for 50% growth inhibition (GI50) in the experiment on HepG2, in the experiment with HeLa [6] and in the experiment with MCF7 [7] was 8.2 to 41 µM each time.

On to `NC1=C(c2nnn[nH]2)C(c2ccc(Br)cc2)c2c(ccc3ccccc23)O1` (stereo unspecified), for which the IC50 in the experiment with Caco-2, in the experiment with HeLa [4], with MCF7 [5] and in the experiment on SK-BR-3 was 15 to 87 µM in each case.

As to `COc1ccc(C(=O)/C=C/c2ccc(Oc3nnnn3-c3ccccc3)cc2)cc1OC`, the IC50 in the experiment with HCT-116 amounted to 3.7 µg/mL (≈ 8.64 µM); in the experiment with PC-3 [1], 3 µg/mL (≈ 7 µM).

With `COc1ccc(C(=O)/C=C/c2ccc(Oc3nnnn3-c3ccccc3)c(OC)c2)cc1OC`, the values for the IC50 in the experiment with HCT-116 and in the experiment with PC-3 [1] were 1.6 µg/mL (≈ 3.49 µM) and 2.2 µg/mL (≈ 4.8 µM), respectively.

For `O=C(O)Cn1nnc(-c2cn(-c3ccccc3)nc2-c2ccc(Cl)cc2)n1`, the IC50 with HT-29 was determined as 6.43 µM; with PC-3 [2], 9.83 µM.

With `NC1=C(c2nnn[nH]2)C(c2ccc(Cl)cc2)c2c(ccc3ccccc23)O1` (stereo unspecified), the IC50 with Caco-2, in the experiment on HeLa [4], in the experiment on MCF7 [5] and in the experiment on SK-BR-3 was 15 to 87 µM each time.

As for `CCc1cc2c(cc1O)CC[C@@H]1[C@@H]2CC[C@]2(C)[C@@H](Cc3nnn[nH]3)CC[C@@H]12`, the GI50 in the experiment with MDA-MB-231 [8], in the experiment on DU-145 and in the experiment with MCF7 [9] was 0.34 to 100 µM throughout.

With `CCc1cc2c(cc1OS(N)(=O)=O)CC[C@@H]1[C@@H]2CC[C@]2(C)[C@@H](Cc3nnn[nH]3)CC[C@@H]12`, the GI50 in the experiment with MDA-MB-231 [8], with DU-145 and in the experiment on MCF7 [9] was 0.34 to 100 µM each time.

As to `O=c1[nH]cc(F)c(=O)[nH]1` [FLUOROURACIL], the IC50 was 10 to 17 µM in the experiment with Caco-2; 17.3 µg/mL (≈ 133 µM) in the experiment with HCT-116; 21.4 µg/mL (≈ 165 µM) in the experiment on PC-3 [1]; 10 to 17 µM in the experiment on HeLa [4]; 9.74 to 21.4 µg/mL in the experiment with MCF7 [5]; 10 to 17 µM with SK-BR-3.

For the molecule `CC/C(=C(\c1ccccc1)c1ccc(OCCN(C)C)cc1)c1ccccc1` [TAMOXIFEN], the results for the GI50 with MDA-MB-231 [3], in the experiment with SiHa and with PANC-1 were 0.24 µM, 0.12 µM and 0.15 µM, respectively.

The values are drawn from ChEMBL document CHEMBL4364264, “Tetrazole hybrids with potential anticancer activity” (Eur J Med Chem, 2019).
